# Measurements: patent publication USRE40594E1, “Inhibitors of the bitter taste response” (Mount Sinai School of Medicine of New York University, priority 1998, dated 2008)
# “Also recorded” adds a separate entry of the source.
# Assays:
# C57BL/6J mice = assay: Forty-eight-hour two-bottle preference test (behavioral assay); format: in vivo
# Description: Behavioral Assays. Multiple sets of male C57BL/6J mice from the Jackson Laboratory were tested. Each set (n=10) was tested with tastant±AMP or GMP. Between tests, mice were provided with acidified water (pH 4.5) for about 2 wk. Tested mice ranged in age from 8 to 20 wk. Mice were individually housed, provided with food ad libitum (Pico Lab Mouse Diet 20 no. 5058; PMI Feeds, St. Louis, Mo.) and presented with distilled water in two sipper bottles for 48 h before testing. During each 48-h test period, a given concentration of tastant was provided in one sipper bottle, whereas the other had distilled water. After 24 h, volumes consumed were recorded, the bottles refilled, and positions reversed (to control for positional cues). Tastants were presented in ascending concentration. Preference ratios were calculated as the fraction of tastant consumed as a percentage of the total volume of liquid consumed. Mean preference ratios and Student's t tests were calculated from total collected data.
# rhodopsin = biological target: T1, rhodopsin (Bos taurus, UniProt P02699); assay: Rhodopsin-mediated activation of transducin (trypsin sensitivity assay, receptor specificity control); format: biochemical, bovine; conditions: 0.001 mM rhodopsin; AMP 0.25, 0.5, 1.25, 2.5, 5.0 mM; FIG. 1D
# T1 construct: Rhodopsin was purified in the light as 6 M urea-washed bovine rod outer segments; from tissue; host or cells: bovine rod outer segments (6 M urea-washed)
# Description: G Protein Activation Assays. Bovine (Bos primigenius) tongues were collected fresh from a local slaughterhouse and transported on ice to the laboratory. Circumvallate papillae were hand dissected, frozen in liquid nitrogen, and stored at −80° C. until use. The collected taste tissues were homogenized, particulates removed by centrifugation, and enriched taste cell membranes collected as described (Ming, D., et al., 1998, Proc. Natl. Acad. Sci. U.S.A. 95:8933-8938). The pelleted membranes were rinsed twice, resuspended in homogenization buffer lacking protease inhibitors, and further homogenized by 20 passages through a 25-gauge needle. Aliquots were either flash frozen or stored on ice until use. The concentration of protein in the membrane preparations was determined by the Peterson modification of the micro-Lowry method (Peterson, G. L., 1977, Anal. Biochem. 83:346-356). Activation of transducin was based on the published trypsin sensitivity procedure (Ming, D., et al., 1998, Proc. Natl. Acad. Sci. U.S.A. 95:8933-8938, Neer, E. J., et al., 1994, Methods Enzymol. 237:226-239). After the trypsin digestion, samples were diluted with Laemmli buffer (Laemmli. U. K., 1970, Nature (London) 227:680-685) and separated by SDS/PAGE by using a 4-20% gel and Tris-glycine buffer. […]
# T1 sequence (P02699 whole entry): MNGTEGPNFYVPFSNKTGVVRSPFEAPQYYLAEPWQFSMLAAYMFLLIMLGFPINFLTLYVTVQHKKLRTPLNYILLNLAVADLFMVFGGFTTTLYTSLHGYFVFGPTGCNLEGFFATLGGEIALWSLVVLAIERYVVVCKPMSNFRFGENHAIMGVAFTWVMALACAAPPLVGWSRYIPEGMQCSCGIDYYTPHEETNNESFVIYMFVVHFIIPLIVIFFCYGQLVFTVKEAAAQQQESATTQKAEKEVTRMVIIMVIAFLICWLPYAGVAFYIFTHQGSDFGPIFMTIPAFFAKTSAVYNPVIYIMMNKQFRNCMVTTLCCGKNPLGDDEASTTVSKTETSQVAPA
structure (smiles),measurement,setting,value
"Nc1ncnc2c1ncn2[C@@H]1O[C@H](COP(=O)(O)O)[C@@H](O)[C@H]1O [AMP, adenosine 5′ monophosphate]",shift of DEN dose-aversiveness curve,"C57BL/6J mice; AMP 0.1, 1.0, 5.0 mM, FIG. 3B",shifted the dose-aversiveness curve to the right
same,concentration at which AMP alone elicits behavioral responses,"C57BL/6J mice; AMP alone, two-bottle preference, FIG. 3B",≥ 0.5 mM
same,inhibitory effect on aversive responses at highest concentration of DEN,"C57BL/6J mice; DEN 5.0 mM, FIGS. 3A-B",eliminated; also recorded: overcame
same,inhibition of aversive responses to DEN,"C57BL/6J mice; DEN 0.05, 0.10, 0.50, 1.0 mM, inhibitor 0.1 and 1.0 mM, n=10, P<0.001, FIG. 3A",inhibited
same,"inhibition of behavioral (aversive) responses to bitter compounds, summary statement","C57BL/6J mice; DEN, QUI and other bitter compounds",blocks
same,effect on behavioral responses to HCl,"C57BL/6J mice; HCl 0.01 and 0.10 mM, 0.1 mM AMP, FIG. 3E",did not alter; also recorded: did not affect
same,effect on behavioral responses to NaCl,"C57BL/6J mice; NaCl 0.1 and 0.3 M, 0.1 mM AMP, FIG. 3E",did not alter; also recorded: did not affect
same,inhibitory effect on aversive responses at highest concentration of QUI,"C57BL/6J mice; QUI 1.0 mM, FIGS. 3C-D",eliminated; also recorded: overcame
same,inhibition of aversive responses to QUI,"C57BL/6J mice; QUI 0.05, 0.10, 0.50 mM, inhibitor 0.1 and 0.5 mM, n=10, P<0.001, FIG. 3C",inhibited
same,effect on behavioral responses to SC45647,"C57BL/6J mice; SC45647 0.01 and 0.10 mM, 0.1 mM AMP, FIG. 3E",did not alter; also recorded: did not affect; also recorded: did not diminish
same,inhibition of aversive responses to sparteine (SPA),"C57BL/6J mice; SPA 0.05 and 0.10 mM, 0.1 mM AMP, P<0.001, FIG. 3E",inhibited
same,inhibition of aversive responses to (−)-epicatechin,"C57BL/6J mice; epicatechin 0.05 and 0.10 mM, 0.1 mM AMP, P<0.01, FIG. 3E",inhibited
same,shift of QUI dose-aversiveness curve,"C57BL/6J mice; increasing concentrations of AMP, FIG. 3D",shifted the dose-aversiveness curve to the right
same,effect on behavioral responses to sucrose,"C57BL/6J mice; sucrose 5.0 and 150 mM, 0.1 mM AMP, FIG. 3E",did not alter; also recorded: did not affect
same,inhibition of activation of transducin by rhodopsin,rhodopsin,does not inhibit; also recorded: did not inhibit
